{"source": "patent US20110189709A1", "about": "“METHOD FOR DETECTING HEPATIC INJURY DUE TO ANTITHYROID DRUG” (YAMASA CORPORATION, priority 2010, published 2011)", "key": {"[1]": {"assay": "Rat thyrotoxicosis model (T3 administration)", "format": "in vivo", "experimental": "Each of blood OCT, AST and ALT levels was measured before and after the administration."}, "[2]": {"system": "primary cultured hepatocytes", "conditions": "10 mM PTU, 1 hour and 3 hours after adding", "description": "Rat hepatocytes, which were isolated by collagenase prefusion, are placed into a 24-well plate coated with collagen to have 10^5 cells/well and cultured for 4 hours. After removing the cells not fixed to the well, 10 mM of PTU was added to the cells and each of the 3 cultured media prior to adding the PTU, of 1 hour after adding the PTU, and of 3 hours after adding PTU, was sampled. After 3 hours of culturing, 0.5% of Triton-X100 was added to destroy the cells and a suspended solution was obtained. OCT, ALT and AST levels in each of the sampled cultured medium and the suspended solution after cell destruction were measured. […] Based upon an activity of the suspended solution as 100%, leakage rates of OCT, AST and ALT were calculated in each cultured medium obtained by sampling."}, "[3]": {"conditions": "liver homogenate after 10 days T3, vs control group"}}, "data": [{"smiles": "N[C@@H](Cc1cc(I)c(Oc2ccc(O)c(I)c2)c(I)c1)C(=O)O", "note": "[T3]", "values": [{"measurement": "ALT content in the liver", "setting": "[1]; [3]", "result": "elevated significantly"}, {"measurement": "AST content in the liver", "setting": "[1]; [3]", "result": "elevated significantly"}, {"measurement": "blood OCT level", "setting": "[1]; male Wistar rats, T3 0.1 mg/kg/day s.c. for 10 days, ELISA, control group 14.0±1.6", "result": "11.9 ± 2.5", "unit": "ng/mL"}, {"measurement": "blood ALT level", "setting": "[1]; male Wistar rats, T3 0.1 mg/kg/day s.c. for 10 days, control group 8.2±0.8", "result": "11.2±0.6", "unit": "IU/L"}, {"measurement": "blood AST level", "setting": "[1]; male Wistar rats, T3 0.1 mg/kg/day s.c. for 10 days, control group 29.0±5.1", "result": "40.0±6.51", "unit": "IU/L"}, {"measurement": "body weight", "setting": "[1]; male Wistar rats, T3 0.1 mg/kg/day s.c. for 10 days, control group 303±15.9 g", "result": "266 ± 5.8", "unit": "g"}]}, {"smiles": "CCCc1cc(=O)[nH]c(=S)[nH]1", "note": "[PTU, propylthiouracil]", "values": [{"measurement": "levels of AST, ALT and OCT in cultured medium", "setting": "[2]; FIG. 1", "result": "elevated"}, {"measurement": "OCT leakage rates compared to the ALT leakage rates", "setting": "[2]; suspended solution after cell destruction = 100%", "result": "higher"}]}]}
